Like-named read-outs stand apart in the source and are kept apart here.
Key:
[1] = system: Escherichia coli expressing NDM-1 (CLB30005, CLB30016); assay type: cell-based; details: with imipenem 1 μg/ml; 95% inhibition of bacterial growth
Outline: (§1)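 Growth by absorbance after 22–24 h at 35°C defined the read-out, with imipenem fixed at 1 μg/ml alongside compound. Inocula came from overnight blood-agar colonies at 35°C, resuspended in saline and diluted 1:100 in 1.1×CAMHB.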

[2] = system: Klebsiella pneumoniae expressing VIM-1 (IHMA599644); assay type: cell-based; details: with imipenem 1 μg/ml; 95% inhibition of bacterial growth
Outline: as §1

[3] = system: Serratia marcescens expressing IMP-1 (CL5741); assay type: cell-based; details: with imipenem 1 μg/ml; 95% inhibition of bacterial growth
Outline: as §1

[4] = molecular target: VIM-1 (Pseudomonas aeruginosa (strain ATCC 15692 / DSM 22644 / CIP 104116 / JCM 14847 / LMG 12228 / 1C / PRS 101 / PAO1), UniProt A0A0F7KYQ8); assay: biochemical; details: CCF2-FA substrate, 30 pM enzyme, 2 hours at 25° C.
Outline: (§2)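 Fluorescence assay, CCF2-FA substrate (cephalosporin core linking 7-hydroxycoumarin to fluorescein); inhibitor + MBL + substrate, 2 h, 25° C. IC50 by 4-parameter fit, semi-log plot.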

[5] = system: Pseudomonas aeruginosa MB9798 vs MB9799; details: ratio MITC95 PA_9798/MITC95 PA_9799
Outline: (§3)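 Microbroth MIC tests in PAO1-background strains with fixed imipenem and/or ceftazidime, usually at the CLSI breakpoint, plus fixed class A/C β-lactamase inhibitor against AmpC. MBL inhibitor titrated; concentration restoring susceptibility recorded and compared as fold difference between efflux+ MB9798 and efflux− MB9799.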

[6] = molecular target: NDM-1 (Klebsiella pneumoniae, UniProt C7C422); assay: biochemical; assay type: biochemical; details: CCF2-FA substrate, 1 pM enzyme, 2 hours at 25° C.
Outline: as §2

[7] = molecular target: IMP-1 (Serratia marcescens, UniProt P52699); assay: biochemical; assay type: biochemical; details: CCF2-FA substrate, 2 pM enzyme, 2 hours at 25° C.
Outline: as §2

[8] = system: Pseudomonas aeruginosa efflux− (MB9799), IMP-1; assay type: cell-based; details: concentration restoring susceptibility to imipenem at 2 μg/mL in the presence of a class A, C, D serine β-lactamase inhibitor closely related to relebactam
Outline: as §3

[9] = system: Pseudomonas aeruginosa efflux+ (MB9798), IMP-1; assay type: cell-based; details: concentration restoring susceptibility to imipenem at 2 μg/mL in the presence of a class A, C, D serine β-lactamase inhibitor closely related to relebactam
Outline: as §3

[10] = fluorescence assay, read-out: NDM-1 IC50
[11] = fluorescence assay, read-out: IMP-1 IC50
[12] = fluorescence assay, read-out: VIM-1 IC50

Chain of IMP-1 (P52699 whole entry, looked up, species assumed): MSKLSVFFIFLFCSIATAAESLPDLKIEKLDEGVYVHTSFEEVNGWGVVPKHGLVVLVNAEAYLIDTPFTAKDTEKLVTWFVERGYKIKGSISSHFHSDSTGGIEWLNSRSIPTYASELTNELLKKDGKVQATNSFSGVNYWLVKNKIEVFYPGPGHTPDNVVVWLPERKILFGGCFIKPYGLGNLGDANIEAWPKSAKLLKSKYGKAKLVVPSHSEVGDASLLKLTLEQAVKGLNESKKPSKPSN
Chain of NDM-1 (C7C422 whole entry, looked up, species assumed): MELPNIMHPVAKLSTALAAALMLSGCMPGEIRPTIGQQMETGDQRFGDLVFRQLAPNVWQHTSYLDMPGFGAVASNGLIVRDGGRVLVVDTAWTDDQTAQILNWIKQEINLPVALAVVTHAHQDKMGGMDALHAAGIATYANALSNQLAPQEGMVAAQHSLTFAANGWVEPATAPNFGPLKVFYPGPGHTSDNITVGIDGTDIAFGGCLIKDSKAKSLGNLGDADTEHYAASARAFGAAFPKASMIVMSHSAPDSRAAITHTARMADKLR

SMILES	Escherichia coli expressing NDM-1 (CLB30016) MITC95 [1] [µM]	Klebsiella pneumoniae expressing VIM-1 (IHMA599644) MITC95 [2] [µM]	Serratia marcescens expressing IMP-1 (CL5741) MITC95 [3] [µM]	IC50 ([4]; VIM-1 IC50, fluorescence assay) [nM]	Efflux ratio [5]	IC50 [6, 10] [nM]	IC50 [7, 11] [nM]	P. aeruginosa expressing IMP-1, efflux − (MB9799) MITC95 [8] [µM]	P. aeruginosa expressing IMP-1, efflux + (MB9798) MITC95 [9] [µM]	IC50 [4, 12] [nM]	IC50 ([6]; NDM-1 IC50, fluorescence assay) [nM]	IC50 ([7]; IMP-1 IC50, fluorescence assay) [nM]
Nc1nc2c(-c3ccc(S(=O)(=O)N4CC[C@H](N)C4)c(S(N)(=O)=O)c3-c3nnn[nH]3)cccc2s1 [Example 61, 3-(2-amino-1,3-benzothiazol-4-yl)-6-{[(3S)-3-aminopyrrolidin-1-yl]sulfonyl}-2-(1H-tetrazol-5-yl)benzenesulfonamide]	3.125	3.125	3.125	1.44	1.00	0.976	1.47	1.563	1.563			
Nc1nc2c(-c3ccc(S(=O)(=O)N4CC[C@@H](N)C4)c(S(N)(=O)=O)c3-c3nnn[nH]3)cccc2s1 [Example 62, 3-(2-amino-1,3-benzothiazol-4-yl)-6-{[(3R)-3-aminopyrrolidin-1-yl]sulfonyl}-2-(1H-tetrazol-5-yl)benzenesulfonamide]	3.125	3.125	1.563	1.63	1.00	0.843	1.28	1.563	1.563			
Nc1nc2c(-c3ccc(S(=O)(=O)N[C@@H]4CCNC4)c(S(N)(=O)=O)c3-c3nnn[nH]3)cccc2s1 [Example 63, 4-(2-amino-1,3-benzothiazol-4-yl)-N1-[(3R)-pyrrolidin-3-yl]-3-(1H-tetrazol-5-yl)benzene-1,2-disulfonamide]	1.563	1.563	1.563		0.50	0.0445	0.307	1.563	0.7813	0.257		
CN(C1CCCNC1)S(=O)(=O)c1ccc(-c2cccc3sc(N)nc23)c(-c2nnn[nH]2)c1S(N)(=O)=O (stereo not drawn) [Example 64, 4-(2-amino-1,3-benzothiazol-4-yl)-N1-methyl-N1-piperidin-3-yl-3-(1H-tetrazol-5-yl)benzene-1,2-disulfonamide]	12.5	12.5	1.563	5.69	2.00	1.49	2.16	1.563	3.125			
CN([C@H]1CCNC1)S(=O)(=O)c1ccc(-c2cccc3sc(N)nc23)c(-c2nnn[nH]2)c1S(N)(=O)=O [Example 65, 4-(2-amino-1,3-benzothiazol-4-yl)-N1-methyl-N1-[(3S)-pyrrolidin-3-yl]-3-(1H-tetrazol-5-yl)benzene-1,2-disulfonamide]	6.25	3.125	3.125		2.00	0.464	0.703	1.563	3.125	1.43		
Nc1nc2c(-c3ccc(S(=O)(=O)N4CCC[C@H](N)C4)c(S(N)(=O)=O)c3-c3nnn[nH]3)cccc2s1 [Example 66, 3-(2-amino-1,3-benzothiazol-4-yl)-6-{[(3S)-3-aminopiperidin-1-yl]sulfonyl}-2-(1H-tetrazol-5-yl)benzenesulfonamide]	3.125	6.25	3.125		2.00	1.09	2.26	1.563	3.125	4.01		
Nc1nc2c(-c3ccc(S(=O)(=O)N[C@H]4CCCNC4)c(S(N)(=O)=O)c3-c3nnn[nH]3)cccc2s1 [Example 67, 4-(2-amino-1,3-benzothiazol-4-yl)-N1-[(3S)-piperidin-3-yl]-3-(1H-tetrazol-5-yl)benzene-1,2-disulfonamide]	1.563	3.125	1.563	0.271	1.00	0.0407	0.488	1.563	1.563			
Nc1nc2c(-c3ccc(S(=O)(=O)N4CCC[C@@H](N)C4)c(S(N)(=O)=O)c3-c3nnn[nH]3)cccc2s1 [Example 68, 3-(2-amino-1,3-benzothiazol-4-yl)-6-{[(3R)-3-aminopiperidin-1-yl]sulfonyl}-2-(1H-tetrazol-5-yl)benzenesulfonamide]	3.125	3.125	1.563		2.00			1.563	3.125	3.7	1.01	1.97
Nc1nc2c(-c3ccc(S(=O)(=O)N[C@@H]4CCCNC4)c(S(N)(=O)=O)c3-c3nnn[nH]3)cccc2s1 [Example 69, 4-(2-amino-1,3-benzothiazol-4-yl)-N1-[(3R)-piperidin-3-yl]-3-(1H-tetrazol-5-yl)benzene-1,2-disulfonamide]	0.7813	3.125	1.563	0.185	0.50	0.0323	0.184	1.563	0.7813			
NC[C@@H]1CCN(S(=O)(=O)c2ccc(-c3cccc4sc(N)nc34)c(-c3nnn[nH]3)c2S(N)(=O)=O)C1 [Example 70, 3-(2-amino-1,3-benzothiazol-4-yl)-6-{[(3S)-3-(aminomethyl)pyrrolidin-1-yl]sulfonyl}-2-(1H-tetrazol-5-yl)benzenesulfonamide]	6.25	12.5	3.125	2.79	1.00	1.95	2.31	3.125	3.125			
Nc1nc2c(-c3ccc(S(=O)(=O)NC[C@H]4CCNC4)c(S(N)(=O)=O)c3-c3nnn[nH]3)cccc2s1 [Example 73, 4-(2-amino-1,3-benzothiazol-4-yl)-N^1-[(3S)-pyrrolidin-3-ylmethyl]-3-(1H-tetrazol-5-yl)benzene-1,2-disulfonamide]	1.563	3.125	1.563	0.125	0.50	0.0332		1.563	0.7813			0.16
NC[C@H]1CCN(S(=O)(=O)c2ccc(-c3cccc4sc(N)nc34)c(-c3nnn[nH]3)c2S(N)(=O)=O)C1 [Example 74, 3-(2-amino-1,3-benzothiazol-4-yl)-6-{[(3R)-3-(aminomethyl)pyrrolidin-1-yl]sulfonyl}-2-(1H-tetrazol-5-yl)benzenesulfonamide]	2.344	3.125	2.344	1.14	1.00	0.646		1.172	1.172			0.84

Reference: patent US10221163B2 (priority 2015, dated 2019)
